Results on eight compounds are retold here after PubChem BioAssay (NCI).

Each structure is given as a SMILES string.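 Dose response: 5 concentrations. Exposure: 48 h. Format: 96-well plates. Endpoint: linear interpolation; highest concentration if not reached. GI50: concentration for 50% inhibition of growth. TGI: total growth inhibition.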 Where only a bound is given, the exact number is not on record here.

Test systems include SK-MEL-28 melanoma; NCI-H460 lung; SNB-75 CNS; UO-31 renal; HCT-15 colon; MCF7 breast; SNB-19 CNS; U251 CNS; HCT-116 colon; M14 melanoma.
Holding throughout (experiment): growth of human tumour cells (NCI), 48 h

Regarding `O=C1C(SCCO)=C(SCCO)C(=O)N1c1ccc(-c2ccccc2)cc1`, the GI50 is 2.41 µM in the assay on SK-MEL-28 melanoma; 9.75 µM in the assay with NCI-H460 lung; 4.1 µM with SNB-75 CNS; 1.54 µM in the assay with UO-31 renal; 2.13 µM in the assay on HCT-15 colon; 2.17 µM with MCF7 breast. The GI50 in the assay with SNB-19 CNS was 19.8 µM; in the assay with U251 CNS it was 5.21 µM; in the assay on HCT-116 colon, 0.536 µM; in the assay with M14 melanoma, 2.31 µM. The TGI is 6.65 µM in the assay with SK-MEL-28 melanoma; 34.9 µM in the assay on NCI-H460 lung; 11.1 µM in the assay on SNB-75 CNS; 2.97 µM in the assay with UO-31 renal; 5.31 µM in the assay on HCT-15 colon; 7.74 µM with MCF7 breast. Moreover, the TGI with SNB-19 CNS is 43.1 µM; in the assay with U251 CNS, 15.7 µM; in the assay with HCT-116 colon, 1.24 µM; with M14 melanoma it was 7.64 µM.

`CCC[CH2][Sn]1([CH2]CCC)[O]C2C(CO)OC(n3ccc(N)nc3=O)C2[O]1` (stereo not given): the GI50 is 1.29 µM with SK-MEL-28 melanoma; 1.79 µM in the assay with NCI-H460 lung; 1.05 µM with SNB-75 CNS; 1.16 µM in the assay on UO-31 renal; 1.27 µM in the assay with HCT-15 colon; 0.3 µM with MCF7 breast. Besides, the GI50 was 1.55 µM in the assay with SNB-19 CNS, 1.52 µM in the assay with U251 CNS, 1.44 µM in the assay on HCT-116 colon and 1.55 µM with M14 melanoma. In addition, the TGI in the assay with SK-MEL-28 melanoma was 2.66 µM; with NCI-H460 lung, 3.6 µM; in the assay on SNB-75 CNS, 2.28 µM; in the assay on UO-31 renal, 2.43 µM; in the assay on HCT-15 colon, 2.7 µM; in the assay with MCF7 breast, 1.42 µM. Moreover, the TGI with SNB-19 CNS amounted to 2.93 µM; in the assay on U251 CNS it was 2.87 µM; in the assay with HCT-116 colon it was 2.79 µM; with M14 melanoma, 3.09 µM.

Consider `CC(C)(C)c1[nH]nc2c1C(c1cc3ccccc3[nH]c1=O)Nc1cc(C(=O)OCc3ccccc3)ccc1N2` (stereo not given), for which the GI50 with SK-MEL-28 melanoma is 2.44 µM; in the assay on NCI-H460 lung, 3.14 µM; with SNB-75 CNS, 4.37 µM; with UO-31 renal, 3.42 µM; in the assay with HCT-15 colon it was 4.65 µM; with MCF7 breast, 3.37 µM. The GI50 in the assay with SNB-19 CNS was 3.28 µM; in the assay with U251 CNS, 3.41 µM; in the assay with HCT-116 colon, 3.2 µM; in the assay with M14 melanoma, 4.28 µM. The TGI is 6.43 µM with SK-MEL-28 melanoma; above 100 µM in the assay with NCI-H460 lung; above 100 µM in the assay with SNB-75 CNS; above 100 µM with UO-31 renal; above 100 µM in the assay with HCT-15 colon; above 100 µM with MCF7 breast. Further, the TGI in the assay with SNB-19 CNS, in the assay with U251 CNS, with HCT-116 colon and with M14 melanoma was above 100 µM throughout.

Turning to `Cn1cccc1-c1cc(-c2ccc(Br)cc2)[nH]c(=O)c1C#N`, the GI50 was above 100 µM in the assay on SK-MEL-28 melanoma; above 100 µM in the assay on NCI-H460 lung; 25.4 µM with SNB-75 CNS; 69.1 µM in the assay with UO-31 renal; above 100 µM in the assay on HCT-15 colon; above 100 µM with MCF7 breast. Also, the GI50 in the assay with SNB-19 CNS, in the assay with U251 CNS and with HCT-116 colon was above 100 µM in each case. The TGI in the assay with SK-MEL-28 melanoma, with NCI-H460 lung, with SNB-75 CNS, in the assay on UO-31 renal, in the assay with HCT-15 colon and in the assay with MCF7 breast was above 100 µM throughout. For the same compound, the TGI in the assay with SNB-19 CNS, in the assay on U251 CNS and in the assay with HCT-116 colon was above 100 µM throughout.

Regarding `Nc1ncnc2c1c(-c1ccc(Oc3ccccc3)cc1)nn2C[C@@H]1SSC[C@H]1O`, the GI50 in the assay with SK-MEL-28 melanoma was 0.084 µM; in the assay on NCI-H460 lung it was 0.281 µM; in the assay on SNB-75 CNS, 4.25 µM; in the assay on UO-31 renal, 1.07 µM; in the assay on HCT-15 colon it was 1.16 µM; with MCF7 breast, 0.898 µM. Further, the figures for the GI50 with SNB-19 CNS, in the assay on U251 CNS and with HCT-116 colon were 2.88 µM, 2.48 µM and 0.364 µM, respectively. In addition, the TGI in the assay on SK-MEL-28 melanoma is 12 µM; in the assay with NCI-H460 lung, 1.45 µM; in the assay with SNB-75 CNS it was above 33.4 µM; in the assay on UO-31 renal it was 3.55 µM; in the assay with HCT-15 colon, 7.31 µM; with MCF7 breast it was 3.79 µM. The TGI with SNB-19 CNS came out at 13.3 µM; with U251 CNS it was 8.21 µM; in the assay on HCT-116 colon, 5.23 µM.

`CN(C)C(=O)c1cnc2oc3ccc(O)cc3c2c1-c1ccccc1`: the GI50 in the assay with SK-MEL-28 melanoma was 5.12 µM; with NCI-H460 lung it was 16.2 µM; in the assay on SNB-75 CNS it was 11.7 µM; with UO-31 renal, 20.5 µM; in the assay on HCT-15 colon, above 25 µM; in the assay on MCF7 breast it was above 25 µM. In addition, the GI50 in the assay with U251 CNS, with HCT-116 colon and in the assay with M14 melanoma was above 25 µM in each case. Also, the TGI in the assay on SK-MEL-28 melanoma, in the assay on NCI-H460 lung, with SNB-75 CNS, in the assay with UO-31 renal, with HCT-15 colon and with MCF7 breast was above 25 µM throughout. The TGI in the assay on U251 CNS, with HCT-116 colon and in the assay with M14 melanoma was above 25 µM each time.

With `N#Cc1nc2c(S(=O)(=O)c3ccc(Cl)cc3)c(N)n(CCCN3CCOCC3)c2nc1C#N`, the GI50 is 4.11 µM in the assay with SK-MEL-28 melanoma; 15.8 µM in the assay on NCI-H460 lung; 11.1 µM in the assay with SNB-75 CNS; 4.58 µM in the assay on UO-31 renal; 4.32 µM in the assay on HCT-15 colon; 3.76 µM with MCF7 breast. Further, the GI50 in the assay on SNB-19 CNS was 28.2 µM; in the assay on U251 CNS, 10.8 µM; in the assay on HCT-116 colon, 3.11 µM. Further, the TGI was 15.7 µM with SK-MEL-28 melanoma; 40.9 µM with NCI-H460 lung; 48.3 µM with SNB-75 CNS; above 100 µM in the assay on UO-31 renal; 27.1 µM in the assay with HCT-15 colon; 16.5 µM in the assay with MCF7 breast. Besides, the TGI in the assay with SNB-19 CNS is above 100 µM; in the assay with U251 CNS it was 26.7 µM; in the assay with HCT-116 colon, 13.6 µM.

For `Cc1[nH]c2ccc(F)cc2c1-c1nc2c3cccnc3c3ncccc3c2[nH]1`, the GI50 in the assay with SK-MEL-28 melanoma is 0.36 µM; in the assay on NCI-H460 lung, 0.41 µM; with SNB-75 CNS, 0.422 µM; in the assay on HCT-15 colon, 0.387 µM; in the assay with MCF7 breast it was 0.361 µM; in the assay with SNB-19 CNS, 0.384 µM. For the same compound, the values for the GI50 in the assay on U251 CNS, in the assay on HCT-116 colon and in the assay on M14 melanoma were 0.244 µM, 0.263 µM and 0.278 µM, respectively. The TGI in the assay with SK-MEL-28 melanoma, with NCI-H460 lung, in the assay with SNB-75 CNS, in the assay on HCT-15 colon, in the assay with MCF7 breast and with SNB-19 CNS was above 100 µM each time. Also, the TGI in the assay on U251 CNS, in the assay on HCT-116 colon and in the assay on M14 melanoma was above 100 µM in each case.
